Measured values as given in ChEMBL document CHEMBL5625198, “Design, synthesis and biological evaluation of novel 3-hydroxypyridin-4(1H)-ones based hybrids as Pseudomonas aeruginosa biofilm inhibitors” (Eur J Med Chem, 2023).
One block for each molecule: values may come before it. Activity calls are given as the source filed them. The calls are words filed in the database; no cut-off is given here.

Experiments:
Pseudomonas aeruginosa [1] = test: Antibiofilm activity against wild-type Pseudomonas aeruginosa PAO1 assessed as inhibition rate at 10 uM incubated for 24 hrs by crystal violet staining based assay relative to control; assay type: functional
Pseudomonas aeruginosa [2] = test: Antibacterial activity against wild-type Pseudomonas aeruginosa PAO1 assessed as bacterial growth inhibition by CLSI based broth-microdilution method; assay type: functional
Pseudomonas aeruginosa [3] = test: Synergistic activity against Pseudomonas aeruginosa PAO1 assessed as reduction in ciprofloxacin MIC […] at 20 uM relative to control; assay type: functional; set-up: scale not given: the % may be the effect or the level left
Pseudomonas aeruginosa [4] = test: Antibiofilm activity against wild-type Pseudomonas aeruginosa PAO1 at 2.5 uM incubated for 24 hrs by crystal violet staining based assay relative to control; assay type: functional
Pseudomonas aeruginosa [5] = test: Effect on rhlA expression in Pseudomonas aeruginosa PAO1 harboring rhlA-gfp at 1.25 to 20 uM measured for 12 hrs by fluorescence based assay; assay type: functional; conditions: dose 1.25-20 µM
[6] = Anti-virulence effect in African green monkey Vero cells infected with Pseudomonas aeruginosa assessed as cell survival at 20 uM incubated for 24 hrs by MTT assay (reference value: 37.7 %); assay type: functional; conditions: Chlorocebus sabaeus, read-out: Activity
Pseudomonas aeruginosa [7] = test: Anti-virulence effect in Pseudomonas aeruginosa PAO1 assessed as decrease in elastase level incubated for 24 hrs by fluorescence based assay; assay type: functional, organism-based; conditions: dose 1.25-20 µM
[8] = Inhibition of quorum sensing system in Pseudomonas aeruginosa PAO1 harboring pqsA-gfp assessed as decrease in pqsA expression measured for 12 hrs by fluorescence based assay; conditions: dose 1.25-20 µM
Pseudomonas aeruginosa [9] = test: Effect on rhamnolipid level in Pseudomonas aeruginosa PAO1 at 1.25 to 20 uM incubated for 24 hrs by absorbance based assay; assay type: functional, organism-based; conditions: dose 1.25-20 µM
Pseudomonas aeruginosa [10] = test: Antibiofilm activity against wild-type Pseudomonas aeruginosa PAO1 incubated for 24 hrs by crystal violet staining based assay; assay type: functional, organism-based
[11] = Inhibition of quorum sensing system in Pseudomonas aeruginosa PAO1 harboring lasB-gfp assessed as decrease in lasB expression measured for 12 hrs by fluorescence based assay; conditions: dose 1.25-20 µM
Pseudomonas aeruginosa [12] = test: Anti-virulence effect in Pseudomonas aeruginosa PAO1 assessed as decrease in pyocyanin level incubated for 48 hrs by absorbance based assay; assay type: functional, organism-based; conditions: dose 1.25-20 µM
Pseudomonas aeruginosa [13] = test: Antibiofilm activity against wild-type Pseudomonas aeruginosa PAO1 at 20 uM incubated for 24 hrs by confocal laser scanning microscopy; assay type: functional, organism-based
Pseudomonas aeruginosa [14] = test: Inhibition of swarming motility in Pseudomonas aeruginosa PAO1 incubated for 16 hrs; assay type: functional, organism-based; conditions: dose 1.25-20 µM
Vero = test: Anti-virulence effect in African green monkey Vero cells infected with Pseudomonas aeruginosa assessed as increase in cell survival incubated for 24 hrs by MTT assay; assay type: functional, cell-based; conditions: Chlorocebus sabaeus, dose <= 20.0 µM
[15] = Cytotoxicity against African green monkey Vero cells assessed as cell viability at 3.125 to 50 uM incubated for 24 hrs by MTT assay; assay type: toxicity, cell-based; conditions: chlorocebus sabaeus, dose 3.125-50 µM

MIC (Pseudomonas aeruginosa [2]): > 128 µM
Structure (SMILES): Cc1cc(=O)c(O)c(CNC(=O)CSc2nc3cc(C#N)ccc3[nH]2)n1C
inhibition at 10 µM (Pseudomonas aeruginosa [1]): 41.3%

MIC (Pseudomonas aeruginosa [2]): > 128 µM
Structure (SMILES): Cc1cc(=O)c(O)c(CNC(=O)CSc2nc3c(C(C)(C)C)cccc3[nH]2)n1C
inhibition at 10 µM (Pseudomonas aeruginosa [1]): 14.5%

MIC (Pseudomonas aeruginosa [2]): > 128 µM
Structure (SMILES): Cc1cc(=O)c(O)c(CNC(=O)CSc2nc3c([N+](=O)[O-])cccc3o2)n1C
inhibition at 10 µM (Pseudomonas aeruginosa [1]): 30.6%

MIC (Pseudomonas aeruginosa [2]): > 128 µM
Structure (SMILES): Cc1cc(=O)c(O)c(CNC(=O)CSc2ccccn2)n1C

MIC (Pseudomonas aeruginosa [2]): > 128 µM
Structure (SMILES): Cc1cc(=O)c(O)c(CNC(=O)CSc2nc3cc(F)ccc3[nH]2)n1C
inhibition at 10 µM (Pseudomonas aeruginosa [1]): 34.7%

MIC (Pseudomonas aeruginosa [2]): > 128 µM
Structure (SMILES): Cc1cc(=O)c(O)c(CNC(=O)CSc2nc3ccc(F)cc3o2)n1C
inhibition at 10 µM (Pseudomonas aeruginosa [1]): 25.4%

MIC (Pseudomonas aeruginosa [2]): > 128 µM
Structure (SMILES): COc1ccc2nc(SCC(=O)NCc3c(O)c(=O)cc(C)n3C)sc2c1
inhibition at 10 µM (Pseudomonas aeruginosa [1]): -22.4%

MIC (Pseudomonas aeruginosa [2]): > 128 µM
Structure (SMILES): Cc1ccc2[nH]c(SCC(=O)NCc3cc(=O)c(O)cn3C)nc2c1
inhibition at 10 µM (Pseudomonas aeruginosa [1]): 3.29%

MIC (Pseudomonas aeruginosa [2]): > 128 µM
Structure (SMILES): Cn1cc(O)c(=O)cc1CNC(=O)CSc1nc2ccccc2[nH]1

MIC (Pseudomonas aeruginosa [2]): > 128 µM
Structure (SMILES): Cc1cc(=O)c(O)c(CNC(=O)CSc2nc3cc(Cl)ccc3[nH]2)n1C

MIC (Pseudomonas aeruginosa [2]): > 128 µM
Structure (SMILES): Cc1cc(=O)c(O)c(CNC(=O)CSc2nc3c(F)cccc3o2)n1C
inhibition at 10 µM (Pseudomonas aeruginosa [1]): 27.6%

MIC (Pseudomonas aeruginosa [2]): > 128 µM
Structure (SMILES): COc1ccc(SCC(=O)NCc2c(O)c(=O)cc(C)n2C)cc1
inhibition at 10 µM (Pseudomonas aeruginosa [1]): -13.6%

MIC (Pseudomonas aeruginosa [2]): > 128 µM
Structure (SMILES): Cc1cc(=O)c(O)c(CNC(=O)CSc2nccs2)n1C
inhibition at 10 µM (Pseudomonas aeruginosa [1]): 46.4%

MIC (Pseudomonas aeruginosa [2]): > 128 µM
Structure (SMILES): Cc1cccc2oc(SCC(=O)NCc3c(O)c(=O)cc(C)n3C)nc12

MIC (Pseudomonas aeruginosa [2]): > 128 µM
Structure (SMILES): COc1ccc2oc(SCC(=O)NCc3c(O)c(=O)cc(C)n3C)nc2c1
inhibition at 10 µM (Pseudomonas aeruginosa [1]): 19.6%

MIC (Pseudomonas aeruginosa [2]): > 128 µM
Structure (SMILES): Cn1cc(O)c(=O)cc1CNC(=O)CSc1nc2cc([N+](=O)[O-])ccc2[nH]1
inhibition at 10 µM (Pseudomonas aeruginosa [1]): -15.2%

MIC (Pseudomonas aeruginosa [2]): > 128 µM
Structure (SMILES): Cc1cc(=O)c(O)c(CNC(=O)CSc2ncc[nH]2)n1C
inhibition at 10 µM (Pseudomonas aeruginosa [1]): 46.1%

MIC (Pseudomonas aeruginosa [2]): > 128 µM
Structure (SMILES): CCOc1ccc2[nH]c(SCC(=O)NCc3c(O)c(=O)cc(C)n3C)nc2c1
inhibition at 10 µM (Pseudomonas aeruginosa [1]): -17.5%

MIC (Pseudomonas aeruginosa [2]): > 128 µM
Structure (SMILES): Cc1cc(=O)c(O)c(CNC(=O)CSc2nc3cc(F)ccc3s2)n1C
inhibition at 10 µM (Pseudomonas aeruginosa [1]): 5%

MIC (Pseudomonas aeruginosa [2]): > 128 µM
Structure (SMILES): Cn1cc(O)c(=O)cc1CNC(=O)CSc1nc2ccccc2s1
inhibition at 10 µM (Pseudomonas aeruginosa [1]): -5.24%

MIC (Pseudomonas aeruginosa [2]): > 128 µM
Structure (SMILES): Cc1cc(=O)c(O)c(CNC(=O)CSc2ccc([N+](=O)[O-])cc2)n1C
inhibition at 10 µM (Pseudomonas aeruginosa [1]): 31.9%

MIC (Pseudomonas aeruginosa [2]): > 128 µM
Structure (SMILES): Cc1cc(=O)c(O)c(CNC(=O)CSc2nc3cc(Cl)ccc3s2)n1C
inhibition at 10 µM (Pseudomonas aeruginosa [1]): 5.12%

MIC (Pseudomonas aeruginosa [2]): > 128 µM
Structure (SMILES): Cc1cc(=O)c(O)c(CNC(=O)CSc2nncs2)n1C
inhibition at 10 µM (Pseudomonas aeruginosa [1]): 16.9%

MIC (Pseudomonas aeruginosa [2]): > 128 µM
Structure (SMILES): Cc1cc(=O)c(O)c(CNC(=O)CSc2nc3c(C(C)(C)C)cccc3o2)n1C
inhibition at 10 µM (Pseudomonas aeruginosa [1]): 19.4%

Further lines, the molecule ahead of its results:

Structure (SMILES): Cc1cc(=O)c(O)c(CNC(=O)CSc2nc3cc([N+](=O)[O-])ccc3[nH]2)n1C
Activity (Pseudomonas aeruginosa [3]): ~50%
inhibition at 2.5 µM (Pseudomonas aeruginosa [4]): > 30%
Activity (Pseudomonas aeruginosa [5]): inactive
viability at 20 µM [6]: 71.5%
Activity (Pseudomonas aeruginosa [7]): Dose-Dependent Effect
inhibition [8]: Dose-Dependent Effect
Activity (Pseudomonas aeruginosa [9]): inactive
IC50 (Pseudomonas aeruginosa [10]; PAO1, 24 h): 10.6 µM
Activity (Pseudomonas aeruginosa [10]; dose 1.25-20 µM): Dose-Dependent Effect
inhibition at 10 µM (Pseudomonas aeruginosa [1]): 51.5%
inhibition [11]: Dose-Dependent Effect
Activity (Pseudomonas aeruginosa [12]): Dose-Dependent Effect
MIC (Pseudomonas aeruginosa [2]): > 128 µM
Activity (Pseudomonas aeruginosa [13]): Active
inhibition (Pseudomonas aeruginosa [14]): Dose-Dependent Effect
Activity (Vero): Dose-Dependent Effect
Activity [15]: Non-Toxic

Structure (SMILES): Cc1cc(=O)c(O)c(CNC(=O)CSc2nc3ccccc3o2)n1C
inhibition at 10 µM (Pseudomonas aeruginosa [1]): 26.2%
MIC (Pseudomonas aeruginosa [2]): > 128 µM

Structure (SMILES): Cc1cc(=O)c(O)c(CNC(=O)CSc2nc3ccccc3s2)n1C
inhibition at 10 µM (Pseudomonas aeruginosa [1]): 22.1%
MIC (Pseudomonas aeruginosa [2]): > 128 µM

Structure (SMILES): Cc1cc(=O)c(O)c(CNC(=O)CSc2nc3cc(C(F)(F)F)ccc3[nH]2)n1C
MIC (Pseudomonas aeruginosa [2]): > 128 µM

Structure (SMILES): Cc1cc(=O)c(O)c(CNC(=O)CSc2nc3cc(Cl)ccc3o2)n1C
inhibition at 10 µM (Pseudomonas aeruginosa [1]): 41.7%
MIC (Pseudomonas aeruginosa [2]): > 128 µM

Structure (SMILES): Cc1ccc2[nH]c(SCC(=O)NCc3c(O)c(=O)cc(C)n3C)nc2c1
inhibition at 10 µM (Pseudomonas aeruginosa [1]): 7.4%
MIC (Pseudomonas aeruginosa [2]): > 128 µM

Structure (SMILES): Cn1cc(O)c(=O)cc1CNC(=O)CSc1nc2ccc([N+](=O)[O-])cc2s1
inhibition at 10 µM (Pseudomonas aeruginosa [1]): 29.1%
MIC (Pseudomonas aeruginosa [2]): > 128 µM

Structure (SMILES): Cc1ccc2oc(SCC(=O)NCc3c(O)c(=O)cc(C)n3C)nc2c1
inhibition at 10 µM (Pseudomonas aeruginosa [1]): 45.8%
MIC (Pseudomonas aeruginosa [2]): > 128 µM

Structure (SMILES): Cc1cc(C)nc(SCC(=O)NCc2c(O)c(=O)cc(C)n2C)n1
inhibition at 10 µM (Pseudomonas aeruginosa [1]): 22.6%
MIC (Pseudomonas aeruginosa [2]): > 128 µM

Structure (SMILES): Cc1cc(=O)c(O)c(CNC(=O)CSc2nc3cc(OC(F)F)ccc3[nH]2)n1C
inhibition at 10 µM (Pseudomonas aeruginosa [1]): 17.6%
MIC (Pseudomonas aeruginosa [2]): > 128 µM

Structure (SMILES): Cc1nnc(SCC(=O)NCc2c(O)c(=O)cc(C)n2C)s1
inhibition at 10 µM (Pseudomonas aeruginosa [1]): -10.2%
MIC (Pseudomonas aeruginosa [2]): > 128 µM

Structure (SMILES): Cc1cc(=O)c(O)c(CNC(=O)CSc2nc3cc(C(F)(F)F)ccc3o2)n1C
inhibition at 10 µM (Pseudomonas aeruginosa [1]): 39.5%
MIC (Pseudomonas aeruginosa [2]): > 128 µM

Structure (SMILES): Cc1cc(=O)c(O)c(CNC(=O)CSc2nc3ccccc3[nH]2)n1C
inhibition at 10 µM (Pseudomonas aeruginosa [1]): 44.6%
MIC (Pseudomonas aeruginosa [2]): > 128 µM

Structure (SMILES): Cc1cccc2sc(SCC(=O)NCc3c(O)c(=O)cc(C)n3C)nc12
inhibition at 10 µM (Pseudomonas aeruginosa [1]): 20.8%
MIC (Pseudomonas aeruginosa [2]): > 128 µM

Structure (SMILES): Cc1cc(=O)c(O)c(CNC(=O)CSc2nc3ccc(F)cc3s2)n1C
inhibition at 10 µM (Pseudomonas aeruginosa [1]): 40.4%
MIC (Pseudomonas aeruginosa [2]): > 128 µM

Structure (SMILES): Cc1cc(=O)c(O)c(CNC(=O)CSc2ncccn2)n1C
inhibition at 10 µM (Pseudomonas aeruginosa [1]): 7.18%
MIC (Pseudomonas aeruginosa [2]): > 128 µM

Structure (SMILES): Cc1cc(=O)c(O)c(CNC(=O)CSc2nc3cc([N+](=O)[O-])ccc3s2)n1C
inhibition at 10 µM (Pseudomonas aeruginosa [1]): 10.1%
MIC (Pseudomonas aeruginosa [2]): > 128 µM

Structure (SMILES): Cc1cc(=O)c(O)c(CNC(=O)CSc2nc3ccc([N+](=O)[O-])cc3s2)n1C
inhibition at 10 µM (Pseudomonas aeruginosa [1]): 45.5%
MIC (Pseudomonas aeruginosa [2]): > 128 µM

Structure (SMILES): Cc1ccc2nc(SCC(=O)NCc3c(O)c(=O)cc(C)n3C)sc2c1
inhibition at 10 µM (Pseudomonas aeruginosa [1]): 31.2%
MIC (Pseudomonas aeruginosa [2]): > 128 µM

Structure (SMILES): COc1ccc2sc(SCC(=O)NCc3c(O)c(=O)cc(C)n3C)nc2c1
inhibition at 10 µM (Pseudomonas aeruginosa [1]): 7.27%
MIC (Pseudomonas aeruginosa [2]): > 128 µM

Structure (SMILES): COc1ccc2[nH]c(SCC(=O)NCc3c(O)c(=O)cc(C)n3C)nc2c1
inhibition at 10 µM (Pseudomonas aeruginosa [1]): 16.3%
MIC (Pseudomonas aeruginosa [2]): > 128 µM

Structure (SMILES): Cc1cc(=O)c(O)c(CNC(=O)CSc2ccncc2)n1C
MIC (Pseudomonas aeruginosa [2]): > 128 µM

Structure (SMILES): Cc1cc(=O)c(O)c(CNC(=O)CSc2nccn2C)n1C
inhibition at 10 µM (Pseudomonas aeruginosa [1]): 30%
MIC (Pseudomonas aeruginosa [2]): > 128 µM
